Measured values: ChEMBL document CHEMBL5104126, “Discovery of 2,3-dihydro-1H-pyrrolo[3,4-b]quinolin-1-one derivatives as possible antileishmanial agents” (RSC Med Chem, 2022)

How the values were obtained:
J774 [1] = experiment: Cytotoxicity against mouse macrophage J774 cells assessed as reduction in cell viability at 50 to 100 uM incubated for 72 hrs by MTT assay; type: toxicity, cell-based; conditions: j774, 72 h, dose 50-100 µM
Leishmania donovani [2] = experiment: Antileishmanial activity against Leishmania donovani MHOM/IN/80/Dd8 promastigotes harboring luciferase gene infected in mouse J774 cells assessed as inhibition of parasite viability at 25 uM incubated for 72 hrs by Steady-Glo reagent based luciferase assay relative to control; type: functional; conditions: MHOM/IN/80/Dd8, J774
J774 [3] = experiment: Cytotoxicity against mouse macrophage J774 cells assessed as reduction in cell viability at 6.25 to 25 uM incubated for 72 hrs by MTT assay; type: toxicity, cell-based; conditions: j774, 72 h, dose 6.25-25 µM
Leishmania donovani [4] = experiment: Antileishmanial activity against Leishmania donovani MHOM/IN/80/Dd8 amastigotes harboring luciferase gene infected in mouse J774 cells assessed as inhibition of parasite viability at 25 uM incubated for 72 hrs by Steady-Glo reagent based luciferase assay relative to control; type: functional; conditions: MHOM/IN/80/Dd8, J774
[5] = Cytotoxicity against mouse macrophage J774 cells assessed as inhibition of cell viability incubated for 72 hrs by MTT assay; type: toxicity, cell-based
Leishmania donovani [6] = experiment: Antileishmanial activity against Leishmania donovani MHOM/IN/80/Dd8 promastigotes infected in Balb/c mouse assessed as inhibition organ parasite burden in spleen at 25 mg/kg, ip for 7 days by Giemsa staining based microscopy; type: functional; conditions: MHOM/IN/80/Dd8, 168 h, time 7 day
[7] = Selectivity index, ratio of CC50 for cytotoxicity against human HepG2 cells to IC50 for antileishmanial activity against Leishmania donovani MHOM/IN/80/Dd8 amastigotes harboring luciferase gene infected in mouse J774 cells; type: toxicity, cell-based; conditions: read-out: Ratio CC50/IC50
Leishmania donovani [8] = experiment: Antileishmanial activity against Leishmania donovani MHOM/IN/80/Dd8 promastigotes infected in Balb/c mouse assessed as inhibition organ parasite burden in liver at 25 mg/kg, ip for 7 days by Giemsa staining based microscopy; type: functional; conditions: MHOM/IN/80/Dd8, 168 h, time 7 day
Leishmania donovani [9] = experiment: Antileishmanial activity against Leishmania donovani MHOM/IN/80/Dd8 promastigotes harboring luciferase gene infected in mouse J774 cells assessed as inhibition of parasite viability incubated for 72 hrs by Steady-Glo reagent based luciferase assay relative to control; type: functional, organism-based; conditions: MHOM/IN/80/Dd8, J774, 72 h
Leishmania donovani [10] = experiment: Antileishmanial activity against Leishmania donovani MHOM/IN/80/Dd8 amastigotes harboring luciferase gene infected in mouse J774 cells assessed as inhibition of parasite viability incubated for 72 hrs by Steady-Glo reagent based luciferase assay relative to control; type: functional, organism-based; conditions: MHOM/IN/80/Dd8, J774, 72 h
[11] = Selectivity index, ratio of CC50 for cytotoxicity against mouse macrophage J774 cells to IC50 for antileishmanial activity against Leishmania donovani MHOM/IN/80/Dd8 amastigotes harboring luciferase gene infected in mouse J774 cells; type: toxicity, cell-based; conditions: read-out: Ratio CC50/IC50
[12] = Cytotoxicity against human HepG2 cells assessed as inhibition of cell viability incubated for 72 hrs by MTT assay; type: toxicity, cell-based
Leishmania mexicana = experiment: Antileishmanial activity against Leishmania mexicana 227 assessed as inhibition of parasite viability; type: functional, organism-based

| Structure (SMILES) | Activity (J774 [1]) | inhibition at 25 µM (Leishmania donovani [2]) [%] | Activity (J774 [3]) | inhibition at 25 µM (Leishmania donovani [4]) [%] | other results |
| --- | --- | --- | --- | --- | --- |
| COc1ccc2nc3c(c(-c4ccccc4)c2c1)C(=O)N(C(C)(C)C(=O)NC(C)(C)C)C3 | >= 30% | 40 | Non-Toxic | 45 |  |
| COc1ccc2nc3c(c(-c4ccccc4)c2c1)C1=NC(=O)C(c2ccc(Br)cc2)N1C3 (stereo unspecified) | >= 30% | 39 | Non-Toxic | 31 |  |
| CCCCCCCCCCCCCCCCOP(=O)([O-])OCC[N+](C)(C)C [MILTEFOSINE] |  |  |  |  | CC50 at 72 h [5]: 72.4 µM; inhibition in vivo at 25 mg/kg (Leishmania donovani [6]): 98.9%; selectivity ratio [7]: 12.8; inhibition in vivo at 25 mg/kg (Leishmania donovani [8]): 97.4%; IC50 (Leishmania donovani [9]): 6.12 µM; IC50 (Leishmania donovani [10]): 6.86 µM; selectivity ratio [11]: 11.8; CC50 at 72 h [12]: 78.6 µM |
| CCCCCCOc1c(OC)cc(NC(C)CCCN)c2nccc(C)c12 (stereo unspecified) [WR-242511] |  |  |  |  | IC50 (Leishmania mexicana): 2.5 µM |
| COc1ccc(C(C(=O)NC(C)(C)C)N2Cc3nc4ccc(OC)cc4c(-c4ccccc4)c3C2=O)cc1 (stereo unspecified) | >= 30% | 40 | Non-Toxic | 45 |  |
| COc1ccc2nc3c(c(-c4ccccc4)c2c1)C(=O)N(C(C(=O)NC(C)(C)C)c1ccc(C(F)(F)F)cc1)C3 (stereo unspecified) | >= 30% | > 70 | Non-Toxic | 45 |  |
| COc1ccc2nc3c(c(-c4ccccc4)c2c1)C(=O)N(C1(C(=O)NC(C)(C)C)CCCCC1)C3 | >= 30% | > 70 | Non-Toxic | 45 | IC50 (Leishmania donovani [10]): 5.35 µM |
| CC(C)(C)NC(=O)C(C)(C)N1Cc2nc3ccc(O)cc3c(-c3ccccc3)c2C1=O | >= 30% | 77.2 | Non-Toxic | 69 |  |
| COc1ccc2nc3c(c(-c4ccccc4)c2c1)C1=NC(=O)C2(CCCC2)N1C3 | >= 30% | 39 | Non-Toxic | 31 |  |
| CC(C)(C)NC(=O)C(c1ccc(F)cc1)N1Cc2nc3ccc(O)cc3c(-c3ccccc3)c2C1=O (stereo unspecified) | >= 30% | 72.7 | Non-Toxic | 69 |  |
| CC1(C)C(=O)N=C2c3c(nc4ccc(Br)cc4c3-c3ccccc3)CN21 | >= 30% | 39 | Non-Toxic | 31 |  |
| COc1ccc2nc3c(c(-c4ccccc4)c2c1)C1=NC(=O)C(c2ccc(C#N)cc2)N1C3 (stereo unspecified) | >= 30% | 39 | Non-Toxic | 31 |  |
| COc1ccc2nc3c(c(C)c2c1)C(=O)N(C(C)(C)C(=O)NC(C)(C)C)C3 | >= 30% | > 70 | Non-Toxic | 45 | IC50 (Leishmania donovani [10]): 7.42 µM |
| CC(C)(C(N)=O)N1Cc2nc3ccc(Cl)cc3c(-c3ccccc3)c2C1=O | >= 30% | 61 | Non-Toxic | 46 |  |
| COc1ccc2nc3c(c(-c4ccccc4)c2c1)C(=O)N(C(C(=O)NC(C)(C)C)c1ccccc1)C3 (stereo unspecified) | >= 30% | > 70 | Non-Toxic | 45 |  |
| CC(C)(C(N)=O)N1Cc2nc3ccccc3c(-c3ccccc3)c2C1=O | >= 30% | 61 | Non-Toxic | 46 |  |

| Structure (SMILES) | Activity (J774 [1]) | inhibition at 25 µM (Leishmania donovani [2]) [%] | Activity (J774 [3]) | inhibition at 25 µM (Leishmania donovani [4]) [%] | other results |
| --- | --- | --- | --- | --- | --- |
| COc1ccc2nc3c(c(-c4ccccc4)c2c1)C1=NC(=O)C2(CCCCC2)N1C3 | >= 30% | 39 | Non-Toxic | 31 |  |
| CC(C)(C)NC(=O)C(C)(C)N1Cc2nc3ccccc3c(-c3ccccc3)c2C1=O | >= 30% | 40 | Non-Toxic | 45 |  |
| COc1ccc2nc3c(c(-c4ccccc4)c2c1)C(=O)N(C(C(=O)NC(C)(C)C)c1cc(OC)c(OC)c(OC)c1)C3 (stereo unspecified) | >= 30% | 40 | Non-Toxic | 45 |  |
| COc1ccc2nc3c(c(-c4ccccc4)c2c1)C1=NC(=O)C(c2ccccc2)N1C3 (stereo unspecified) | >= 30% | 39 | Non-Toxic | 31 |  |
| COc1ccc2nc3c(c(-c4ccccc4)c2c1)C1=NC(=O)C(c2ccc(Cl)cc2)N1C3 (stereo unspecified) | >= 30% | 39 | Non-Toxic | 31 |  |
| COc1ccc2nc3c(c(-c4ccccc4)c2c1)C1=NC(=O)C(C)(C)N1C3 | >= 30% | 39 | Non-Toxic | 31 |  |
| COc1ccc2nc3c(c(-c4ccccc4)c2c1)C(=O)N(C(C(=O)NC(C)(C)C)c1ccc(Cl)cc1)C3 (stereo unspecified) | >= 30% | 40 | Non-Toxic | 45 | IC50 (Leishmania donovani [10]): 10.5 µM |
| COc1ccc2nc3c(c(-c4ccccc4)c2c1)C(=O)N(C1(C(=O)NC(C)(C)C)CCCC1)C3 | >= 30% | 40 | Non-Toxic | 45 |  |
| CC(C)(C)NC(=O)C(C)(C)N1Cc2nc3ccc(Br)cc3c(-c3ccccc3)c2C1=O | >= 30% | > 70 | Non-Toxic | 45 | IC50 (Leishmania donovani [10]): 10.3 µM |
| COc1ccc2nc3c(c(-c4ccccc4)c2c1)C1=NC(=O)C(c2cc(OC)c(OC)c(OC)c2)N1C3 (stereo unspecified) | >= 30% | 39 | Non-Toxic | 31 |  |
| COc1ccc2nc3c(c(-c4ccccc4)c2c1)C(=O)N(C(C(=O)NC(C)(C)C)c1ccc(F)cc1)C3 (stereo unspecified) | >= 30% | 40 | Non-Toxic | 45 |  |
| COc1ccc2nc3c(c(-c4ccccc4)c2c1)C(=O)N(C(C(=O)NC(C)(C)C)c1ccc(C#N)cc1)C3 (stereo unspecified) | >= 30% | 40 | Non-Toxic | 45 |  |
| COc1ccc2nc3c(c(-c4ccccc4)c2c1)C(=O)N(CC(=O)NC(C)(C)C)C3 | >= 30% | 40 | Non-Toxic | 45 | IC50 (Leishmania donovani [10]): 8.39 µM |
| COc1ccc2nc3c(c(-c4ccccc4)c2c1)C(=O)N(C(C(N)=O)c1ccc(F)cc1)C3 (stereo unspecified) | >= 30% | 61 | Non-Toxic | 46 | IC50 (Leishmania donovani [10]): 8.75 µM |
| COc1ccc2nc3c(c(-c4ccccc4)c2c1)C(=O)N(C(C(=O)NC(C)(C)C)c1ccc(O)cc1)C3 (stereo unspecified) | >= 30% | 40 | Non-Toxic | 45 |  |
